Data on three compounds can be found in ChEMBL document CHEMBL1152560, “Substituted 2-arylbenzothiazoles as kinase inhibitors: hit-to-lead optimization” (Bioorg Med Chem, 2009).

The target in assay [1] is T1, Serine/threonine-protein kinase TBK1 (Homo sapiens) (UniProt Q9UHD2).
T1 sequence (whole entry): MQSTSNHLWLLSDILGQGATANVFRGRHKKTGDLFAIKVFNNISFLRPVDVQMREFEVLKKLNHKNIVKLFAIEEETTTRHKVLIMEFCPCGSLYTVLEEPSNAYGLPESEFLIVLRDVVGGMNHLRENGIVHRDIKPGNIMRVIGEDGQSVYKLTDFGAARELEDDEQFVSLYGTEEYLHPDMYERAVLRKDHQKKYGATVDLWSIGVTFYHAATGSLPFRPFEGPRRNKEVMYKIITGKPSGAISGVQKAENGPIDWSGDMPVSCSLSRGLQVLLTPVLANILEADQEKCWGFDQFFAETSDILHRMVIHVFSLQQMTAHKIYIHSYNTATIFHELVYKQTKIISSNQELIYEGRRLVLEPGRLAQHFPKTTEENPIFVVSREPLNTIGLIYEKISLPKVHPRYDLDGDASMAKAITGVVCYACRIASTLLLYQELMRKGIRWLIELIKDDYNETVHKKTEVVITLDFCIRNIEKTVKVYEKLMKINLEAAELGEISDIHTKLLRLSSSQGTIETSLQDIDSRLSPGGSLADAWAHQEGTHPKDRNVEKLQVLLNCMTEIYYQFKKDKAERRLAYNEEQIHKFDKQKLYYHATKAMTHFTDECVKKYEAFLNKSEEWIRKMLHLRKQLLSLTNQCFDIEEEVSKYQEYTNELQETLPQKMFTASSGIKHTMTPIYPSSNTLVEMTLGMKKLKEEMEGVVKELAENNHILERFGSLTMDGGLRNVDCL
The experiment in a line: Residual activity of TBK1 at 0.1 uM by microplate scintillation counting.

For assay [2], the target named is Non-receptor tyrosine-protein kinase TYK2 (Homo sapiens) (UniProt P29597). The assay is described as follows: Residual activity of TYK2 at 1 uM by microplate scintillation counting.
The target of assay [3] is T2, Serine/threonine-protein kinase Nek3 (Homo sapiens) (UniProt P51956).
T2 sequence (whole entry): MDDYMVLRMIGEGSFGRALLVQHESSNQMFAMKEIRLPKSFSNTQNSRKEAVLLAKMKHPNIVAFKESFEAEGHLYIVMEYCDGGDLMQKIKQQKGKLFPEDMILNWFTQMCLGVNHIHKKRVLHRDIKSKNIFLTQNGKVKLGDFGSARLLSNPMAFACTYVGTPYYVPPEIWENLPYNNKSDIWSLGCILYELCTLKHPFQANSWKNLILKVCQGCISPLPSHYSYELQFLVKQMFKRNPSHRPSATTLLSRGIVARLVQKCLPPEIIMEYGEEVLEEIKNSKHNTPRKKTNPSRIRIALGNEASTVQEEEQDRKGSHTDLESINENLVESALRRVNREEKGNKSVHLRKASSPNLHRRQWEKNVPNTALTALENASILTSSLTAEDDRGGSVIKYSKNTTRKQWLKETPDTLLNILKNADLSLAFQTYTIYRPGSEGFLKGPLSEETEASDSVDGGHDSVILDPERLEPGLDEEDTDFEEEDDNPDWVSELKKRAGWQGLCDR
The experiment in a line: Residual activity of NEK3 at 1 uM by microplate scintillation counting.

Assay [4] concerns the target T3, Testis-specific serine/threonine-protein kinase 2 (Homo sapiens) (UniProt Q96PF2).
T3 sequence (whole entry): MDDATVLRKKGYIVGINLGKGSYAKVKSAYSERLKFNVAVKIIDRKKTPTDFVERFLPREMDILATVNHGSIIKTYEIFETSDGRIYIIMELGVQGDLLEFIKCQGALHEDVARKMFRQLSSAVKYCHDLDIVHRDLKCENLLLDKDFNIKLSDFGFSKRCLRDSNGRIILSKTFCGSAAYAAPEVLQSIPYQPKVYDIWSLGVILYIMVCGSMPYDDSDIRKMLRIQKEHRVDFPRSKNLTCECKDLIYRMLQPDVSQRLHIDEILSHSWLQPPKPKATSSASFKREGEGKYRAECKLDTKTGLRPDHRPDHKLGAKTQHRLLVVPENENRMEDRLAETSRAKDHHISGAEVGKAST
The assay is described as follows: Residual activity of TSK2 at 10 uM by microplate scintillation counting.

The target in assay [5] is T4, Eukaryotic elongation factor 2 kinase (Homo sapiens) (UniProt O00418).
T4 sequence (whole entry): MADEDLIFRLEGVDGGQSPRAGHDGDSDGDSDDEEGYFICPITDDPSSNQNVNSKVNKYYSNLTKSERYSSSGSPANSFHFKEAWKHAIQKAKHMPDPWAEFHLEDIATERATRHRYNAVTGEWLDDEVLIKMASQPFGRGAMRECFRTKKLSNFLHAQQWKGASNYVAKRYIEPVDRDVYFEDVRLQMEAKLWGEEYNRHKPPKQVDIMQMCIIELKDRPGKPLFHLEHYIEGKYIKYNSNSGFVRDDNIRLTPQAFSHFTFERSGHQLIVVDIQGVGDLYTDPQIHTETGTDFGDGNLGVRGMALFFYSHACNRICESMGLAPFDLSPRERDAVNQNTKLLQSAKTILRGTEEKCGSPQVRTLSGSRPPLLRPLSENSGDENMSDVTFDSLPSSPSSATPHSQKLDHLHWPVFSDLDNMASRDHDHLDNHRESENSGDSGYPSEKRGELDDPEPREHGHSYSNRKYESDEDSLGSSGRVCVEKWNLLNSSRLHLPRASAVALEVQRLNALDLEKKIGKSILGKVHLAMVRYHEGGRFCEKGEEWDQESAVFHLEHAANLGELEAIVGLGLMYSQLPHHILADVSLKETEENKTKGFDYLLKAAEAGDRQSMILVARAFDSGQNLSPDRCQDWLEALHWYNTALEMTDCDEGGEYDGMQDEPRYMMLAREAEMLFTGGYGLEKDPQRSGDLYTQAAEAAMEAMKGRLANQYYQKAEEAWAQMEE
The assay is described as follows: Residual activity of EEF2K at 1 uM by microplate scintillation counting.

In assay [6] the test system is Epidermal growth factor receptor (Homo sapiens), P00533 [L858R,T790M]. The experiment in a line: Residual activity of EGFR T790M/L858R mutant at 10 uM by microplate scintillation counting.
Assay [7] addresses Death-associated protein kinase 2 (Homo sapiens) (UniProt Q9UIK4). The assay is described as follows: Residual activity of DAPK2 at 1 uM by microplate scintillation counting.
Assay [8] deals with Tyrosine-protein kinase Fer (Homo sapiens) (UniProt P16591). The experiment in a line: Residual activity of FER at 10 uM by microplate scintillation counting.
Assay [9] addresses Activated CDC42 kinase 1 (Homo sapiens) (UniProt Q07912). The assay is described as follows: Residual activity of ACK1 at 10 uM by microplate scintillation counting.
Assay [10] deals with Casein kinase I isoform alpha (Homo sapiens) (UniProt P48729). The experiment in a line: Residual activity of CK1alpha1 at 10 uM by microplate scintillation counting.
In assay [11] the target is CDK8/Cyclin C (Homo sapiens) (UniProt P49336+P24863). The assay is described as follows: Residual activity of CDK8/Cyclin C at 1 uM by microplate scintillation counting. Type of assay: protein-complex assay.
The target of assay [12] is T1, Serine/threonine-protein kinase TBK1 (Homo sapiens). The assay is described as follows: Residual activity of TBK1 at 10 uM by microplate scintillation counting.

Chain of Casein kinase I isoform alpha (Homo sapiens) (P48729 2-337 limits assumed): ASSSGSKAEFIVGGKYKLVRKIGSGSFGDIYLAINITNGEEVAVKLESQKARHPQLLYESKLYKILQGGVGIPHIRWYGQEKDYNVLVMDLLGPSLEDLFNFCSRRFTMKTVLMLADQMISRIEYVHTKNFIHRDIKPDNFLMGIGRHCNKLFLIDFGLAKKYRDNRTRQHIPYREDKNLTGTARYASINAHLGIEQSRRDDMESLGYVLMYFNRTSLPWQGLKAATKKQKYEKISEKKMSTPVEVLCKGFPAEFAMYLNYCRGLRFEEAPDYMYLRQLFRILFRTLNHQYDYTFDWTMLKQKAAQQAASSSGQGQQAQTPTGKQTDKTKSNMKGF
Chain of Activated CDC42 kinase 1 (Homo sapiens) (Q07912 whole entry, looked up, canonical isoform): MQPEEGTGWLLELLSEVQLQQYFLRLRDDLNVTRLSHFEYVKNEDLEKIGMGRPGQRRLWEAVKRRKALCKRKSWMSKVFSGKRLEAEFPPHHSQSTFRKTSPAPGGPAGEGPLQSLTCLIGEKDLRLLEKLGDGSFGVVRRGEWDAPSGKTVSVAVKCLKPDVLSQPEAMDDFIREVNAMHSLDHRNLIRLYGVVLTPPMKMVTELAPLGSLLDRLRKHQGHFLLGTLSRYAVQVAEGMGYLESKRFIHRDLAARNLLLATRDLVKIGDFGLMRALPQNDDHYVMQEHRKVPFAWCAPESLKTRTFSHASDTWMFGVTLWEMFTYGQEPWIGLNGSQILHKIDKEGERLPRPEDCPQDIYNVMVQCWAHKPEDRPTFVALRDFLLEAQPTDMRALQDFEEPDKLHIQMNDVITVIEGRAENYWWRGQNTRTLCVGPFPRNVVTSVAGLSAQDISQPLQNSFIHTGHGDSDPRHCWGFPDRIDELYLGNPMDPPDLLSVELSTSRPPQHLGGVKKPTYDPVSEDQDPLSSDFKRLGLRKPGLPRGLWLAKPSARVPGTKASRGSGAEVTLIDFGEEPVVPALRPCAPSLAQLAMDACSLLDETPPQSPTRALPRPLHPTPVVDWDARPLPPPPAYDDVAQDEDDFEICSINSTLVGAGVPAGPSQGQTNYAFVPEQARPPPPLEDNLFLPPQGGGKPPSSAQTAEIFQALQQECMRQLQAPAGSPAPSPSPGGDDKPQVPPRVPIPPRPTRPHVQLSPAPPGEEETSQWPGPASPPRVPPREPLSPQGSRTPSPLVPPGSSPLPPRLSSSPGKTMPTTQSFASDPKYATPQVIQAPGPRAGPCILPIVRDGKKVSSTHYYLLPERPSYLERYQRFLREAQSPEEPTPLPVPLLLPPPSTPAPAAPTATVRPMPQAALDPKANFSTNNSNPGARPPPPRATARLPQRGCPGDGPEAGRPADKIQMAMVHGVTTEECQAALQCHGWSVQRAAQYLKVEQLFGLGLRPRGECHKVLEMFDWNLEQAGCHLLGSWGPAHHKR
Chain of Non-receptor tyrosine-protein kinase TYK2 (Homo sapiens) (P29597 whole entry): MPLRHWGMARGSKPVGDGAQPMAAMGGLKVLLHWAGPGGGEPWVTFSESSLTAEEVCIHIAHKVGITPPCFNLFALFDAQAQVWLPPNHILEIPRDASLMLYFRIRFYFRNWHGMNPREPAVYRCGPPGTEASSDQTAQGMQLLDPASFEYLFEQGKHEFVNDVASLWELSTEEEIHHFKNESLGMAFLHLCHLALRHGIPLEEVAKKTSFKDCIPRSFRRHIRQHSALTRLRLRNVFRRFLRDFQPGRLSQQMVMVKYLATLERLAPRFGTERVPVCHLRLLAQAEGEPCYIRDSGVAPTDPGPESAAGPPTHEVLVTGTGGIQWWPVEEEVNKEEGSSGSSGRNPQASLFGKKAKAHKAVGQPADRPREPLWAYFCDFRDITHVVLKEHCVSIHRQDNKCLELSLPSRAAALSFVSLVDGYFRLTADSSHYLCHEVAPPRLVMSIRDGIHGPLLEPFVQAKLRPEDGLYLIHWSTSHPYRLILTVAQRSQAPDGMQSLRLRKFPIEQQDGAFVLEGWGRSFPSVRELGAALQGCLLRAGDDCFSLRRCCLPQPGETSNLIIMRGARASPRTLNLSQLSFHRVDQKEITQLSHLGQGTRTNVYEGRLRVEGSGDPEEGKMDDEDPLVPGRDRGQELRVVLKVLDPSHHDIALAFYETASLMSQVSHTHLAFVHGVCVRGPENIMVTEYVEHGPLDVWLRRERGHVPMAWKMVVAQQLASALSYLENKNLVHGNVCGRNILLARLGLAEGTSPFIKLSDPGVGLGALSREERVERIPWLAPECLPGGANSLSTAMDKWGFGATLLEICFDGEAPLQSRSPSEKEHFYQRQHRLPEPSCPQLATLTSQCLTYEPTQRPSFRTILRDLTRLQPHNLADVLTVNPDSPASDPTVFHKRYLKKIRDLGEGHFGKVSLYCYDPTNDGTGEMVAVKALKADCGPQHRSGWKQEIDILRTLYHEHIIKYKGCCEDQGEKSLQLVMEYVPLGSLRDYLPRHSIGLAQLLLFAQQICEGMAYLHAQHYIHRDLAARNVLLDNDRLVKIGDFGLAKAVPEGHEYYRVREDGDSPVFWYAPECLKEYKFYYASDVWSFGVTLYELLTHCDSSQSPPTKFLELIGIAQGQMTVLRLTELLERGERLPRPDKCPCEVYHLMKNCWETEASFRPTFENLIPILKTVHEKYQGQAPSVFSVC
Chain of Tyrosine-protein kinase Fer (Homo sapiens) (P16591 whole entry, looked up): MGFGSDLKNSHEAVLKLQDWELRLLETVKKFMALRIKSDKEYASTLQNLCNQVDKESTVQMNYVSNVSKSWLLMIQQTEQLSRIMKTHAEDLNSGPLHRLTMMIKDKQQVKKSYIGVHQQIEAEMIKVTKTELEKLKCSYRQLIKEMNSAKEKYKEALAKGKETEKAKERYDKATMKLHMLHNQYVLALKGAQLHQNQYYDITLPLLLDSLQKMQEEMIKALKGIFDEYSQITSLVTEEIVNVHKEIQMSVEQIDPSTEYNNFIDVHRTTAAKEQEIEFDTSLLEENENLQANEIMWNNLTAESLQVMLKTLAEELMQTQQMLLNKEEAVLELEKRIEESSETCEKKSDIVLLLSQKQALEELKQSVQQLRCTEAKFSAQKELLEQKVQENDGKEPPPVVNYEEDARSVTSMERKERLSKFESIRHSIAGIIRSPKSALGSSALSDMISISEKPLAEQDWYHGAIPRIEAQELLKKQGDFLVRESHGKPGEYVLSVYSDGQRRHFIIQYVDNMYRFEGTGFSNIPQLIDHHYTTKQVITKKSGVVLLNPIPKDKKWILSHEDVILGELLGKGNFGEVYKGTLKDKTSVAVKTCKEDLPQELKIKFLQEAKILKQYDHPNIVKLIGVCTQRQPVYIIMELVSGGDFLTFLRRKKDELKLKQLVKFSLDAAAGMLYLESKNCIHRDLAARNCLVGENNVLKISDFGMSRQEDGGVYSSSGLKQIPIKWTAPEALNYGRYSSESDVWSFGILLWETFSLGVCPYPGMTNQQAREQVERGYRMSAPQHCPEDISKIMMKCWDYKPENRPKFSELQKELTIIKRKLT
Chain of Death-associated protein kinase 2 (Homo sapiens) (Q9UIK4 whole entry, looked up): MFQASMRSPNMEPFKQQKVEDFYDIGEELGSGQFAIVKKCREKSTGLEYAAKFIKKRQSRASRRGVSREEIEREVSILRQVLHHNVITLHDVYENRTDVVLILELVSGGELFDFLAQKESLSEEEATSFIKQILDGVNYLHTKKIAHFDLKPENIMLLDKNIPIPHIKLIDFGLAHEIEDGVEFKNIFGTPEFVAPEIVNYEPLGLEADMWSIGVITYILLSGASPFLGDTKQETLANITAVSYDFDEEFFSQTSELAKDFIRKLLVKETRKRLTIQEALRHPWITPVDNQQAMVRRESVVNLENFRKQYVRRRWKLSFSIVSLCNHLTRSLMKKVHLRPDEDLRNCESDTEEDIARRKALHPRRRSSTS

`COc1cc2c(Oc3ccc(-c4nc5ccccc5s4)cc3)ncnc2cc1OCCCN1CCCC1`: the residual activity in assay [1] worked out at 94%; in assay [2] it was 90%; in [3], 110%; in assay [4] it was 110%; in assay [5], 86%; in [6], 147%. In addition, the residual activity in assay [7] amounted to 92%; in [8] it was 73%; in assay [9] it was 31%; in [10], 139%; in assay [11] it was 95%; in assay [12] it was 143%.
As to `COc1cc2c(Oc3ccc(-c4nc5ccccc5s4)cc3F)ncnc2cc1OCCCN1CCN(C)CC1`, the residual activity in assay [1] is 94%; in assay [2] it was 92%; in assay [3], 103%; in assay [4], 111%; in [5], 90%; in assay [6] it was 70%. Moreover, the residual activity in [7] turned out to be 90%; in assay [8], 16%; in assay [9], 40%; in assay [10], 144%; in assay [11], 81%; in assay [12] it was 141%.
On to `COc1cc2c(Oc3ccc(-c4nc5ccccc5s4)cc3)ncnc2cc1OCCCN1CCN(C)CC1`, for which the residual activity in assay [1] stood at 79%; in [2], 93%; in [3], 102%; in [4], 109%; in assay [5], 82%; in assay [6], 167%. The residual activity stood at 79% in assay [7]; 79% in assay [8]; 35% in [9]; 155% in [10]; 79% in assay [11]; 171% in assay [12].
